Assay results from PMC11217349, “Development of Nurr1 agonists from amodiaquine by scaffold hopping and fragment growing” (Communications Chemistry, 2024).
Values joined by “and” are separate entries in the source; they are usually repeats but may differ in a detail not shown here. Identical values can stand only once. “Also recorded” adds a separate entry of the source.

Columns and labels:
N27 rat neurons = experiment: WST-8 cytotoxicity assay, N27; format: cell-based
Method: Each sample was prepared in four biologically independent repeats. After incubation for 24 h, the medium was refreshed and 10% water-soluble tetrazolinum salt (Cell Counting Kit-8, MedChemExpress) was added to assess metabolic activity. After 4 h, absorbance was measured at 450 nm using a Tecan Spark Cyto instrument (Tecan).

[1] = tested on: HBEC-5i human brain endothelial cells; experiment: In vitro blood-brain-barrier model; format: in vitro ADME; settings: HBEC-5i trans-well, 10 µM, 60 min
Method: Permeation of test compounds through a human brain endothelial cell barrier was evaluated using the Corning Costar 3470 Transwell Plate system (0.4 μm pore diameter with 6.5 mm inserts) and HBEC-5i cells (ATCC, CRL-3245). Filter inserts were coated one day before seeding with 50 μL 0.01% rat-tail collagen type I ([…], Sigma-Aldrich) in PBS. 60,000 HBEC-5i cells in 100 μL HBEC-5i-Medium (DMEM/F12 with 10% FCS and 40 μg/mL ECGS) were seeded after aspiration of the coating-supernatant in each insert with 600 μL HBEC-5i-Medium in each receiver well. After 24 h incubation at 37 °C with 5% CO2, the medium was exchanged to 600 μL T98G cell supernatant in receiver wells and 100 μL fresh HBEC-5i-Medium in inserts. The medium exchange was repeated every second day. On day 7 after seeding, the medium in the receiver wells was replaced by 600 μL Hank's balanced salt solution (HBSS) containing 10 mM HEPES and 0.1% DMSO and 100 μL test compound mixtures (antipyrine and test compound; each at 10 μM) in HBSS containing 10 mM HEPES and 0.1% DMSO were added to inserts. After 60 min incubation, 100 μL samples were taken from the receiver wells and diluted in 400 μL (75%/25% A/B; A=Formic acid 0.1% in water; B = Acetonitrile). Test compound concentrations in the samples were determined by LC-MS/MS on an API-3200-QTrap (Sciex) equipped with an Agilent Technologies 1100 series setup including a binary pump […]), and a Shimadzu […] autosampler under the control of Analyst 1.6 (Sciex). […] B) for 6 min going to (50%:50%) after 8 min. 5 μL of aspirated supernatant diluted in mobile phase starting conditions was loaded onto the column, separated at a flow rate of 400 μL/min, and quantified per Area of MRM (multiple reaction monitoring).

How did the “rel. absorbance (450 nm)” value (N27 rat neurons; N27, 10 µM, WST-8, vs DMSO ctrl) turn out when `Cc1nc2c(Cl)cccn2c1NC(=O)c1ccc(-c2ccc(N(C)C)cc2)o1` [Compound 36, N-(8-Chloro-2-methylimidazo[1,2-a]pyridin-3-yl)-5-(4-(dimethylamino)phenyl)furan-2-carboxamide] was run?
The value was 94% and 99% and 90% and 91%.

What about the “toxicity (WST-8)” value (N27 rat neurons; N27 rat neurons, 24 h) of the same compound?
The value was “no toxic effect; also recorded: non-toxic; also recorded: inactive (10 µM)”.

What about the “logPe (BBB)” value [1] of the same compound?
The value was -4.64 and -4.729 and -4.725 and -4.687 and -4.681 and -4.749.
